According to US10945981B2, “Methods for treating familial adenomatous polyposis” (CANCER PREVENTION PHARMACEUTICALS, INC., priority 2019, dated 2021):
Entries after “also recorded” stand apart in the source; their conditions may differ.

Tests used:
[1] = tested on: patients with Familial Adenomatous Polyposis (FAP); experiment: Randomized, double-blind phase III trial in FAP patients: FAP-related events (efficacy); type: in vivo, human; details: for Mean time to first FRE: Kaplan-Meier estimated; for Hazard ratio: combination versus the arm named
Text: Patients were stratified by anatomic site with highest polyp burden and surgical status: (a) post colectomy with rectal or ileal pouch polyposis (longest projected time to first FRE); (b) with duodenal polyposis (intermediate projected time to first FRE); and (c) pre-colectomy (shortest projected time to first FRE) prior to randomization to minimize treatment imbalance.
A stratified randomization procedure was used with stratification based on FAP-related time-to-first-event prognosis (see FIG. 1). The event prognosis groups were represented by 1) best (i.e., longest projected time to first FAP-related event)—rectal/pouch polyposis (Post-colectomy (≥3 years S/P IRA or IPAA with >10 polyps; any polyps >5 mm excised at baseline)), 2) intermediate—duodenal polyposis (Spigelman Stage 3 or 4 or Spigelman Stage 3 or 4 down-staged to Spigelman 1 or 2 within the past 6 months), and 3) worst—pre-colectomy. If a subject has two or more of these disease sites, the most severe prognosis stratum was assigned for randomization (e.g. worst>intermediate>best). Since an individual may have more than one disease site involved, the trial assessed time to any defined FAP-related event in the subject as a whole. In order to minimize potential treatment arm imbalance a centralized randomization process was used to balance among treatment groups within prognostic strata.
Lower GI Endoscopy: Patients were evaluated via colonoscopy, flexible or rigid procto-sigmoidoscopy during the screening phase. Biopsies, ablations, and snare excisions at baseline were performed per the clinician's standard of care. If considered eligible based on inclusion criteria, a grossly normal mucosa biopsy was obtained for baseline polyamine measurement. Still and video documentation of the colon (vide infra) or the residual rectum or entire pouch was also obtained for archiving. Polyp size was determined by visual comparison with biopsy forceps that can measure 5.0-5.5 mm in the fully open position. All randomized patients with an intact colon or rectum/pouch had baseline and on-study lower GI endoscopy procedures as part of this trial.
Upper GI Endoscopy: The duodenum was evaluated by forward-viewing and/or side-viewing gastroscopes (with still and video documentation with closed and open biopsy forceps near mucosa). All randomized patients with a duodenum had baseline and on-study UGI endoscopy as part of this trial. Subjects stratified to the duodenal group must have duodenal biopsies of all polyps 1 cm or larger to determine HGD and histology required for determining Stage 3 or 4 Spigelman status.
FAP-related primary events by disease site were as follows: • 1. Pre-operative, intact colon: Disease progression indicating need for colectomy with IRA or total procto-colectomy • 2. Retained rectum or pouch events include one or more of the following: • a) Excisional intervention by endoscopic snare or trans-anal excision to remove any polyp ≥10 mm in size (per pathology report) and/or pathologic evidence of high grade dysplasia. • b) Disease progression indicating need for proctectomy or pouch resection • 3. Duodenal disease includes the following: • a) Progression in Spigelman Stage to more advanced stage (Stage 2, 3 or 4) • b) Disease progression indicating need for excisional intervention (sub-mucosal resection, trans-duodenal excision, ampullectomy, duodenectomy, Whipple procedure) • c) Development of cancer
At six month intervals (+/−two weeks), subjects underwent repeat upper and lower endoscopy. […] Video recordings of all procedures and qualitative assessments were compared to the exam 6 months prior.

[2] = human, in vivo; cited from earlier work
[3] = cited from earlier work
[4] = tested on: patients with Familial Adenomatous Polyposis (FAP); experiment: Randomized, double-blind phase III trial in FAP patients: safety (adverse events); details: for Treatment-related serious adverse events: 1 patient each
[5] = in vivo; cited from earlier work
patients with FAP = details: cited from earlier work
[6] = disease site colon, number of subjects
[7] = disease site duodenum, number of subjects
[8] = disease site rectum and pouch, number of subjects
[9] = post-colectomy, rectal/ileal pouch stratum

CC1=C(CC(=O)O)c2cc(F)ccc2/C1=C\c1ccc([S+](C)[O-])cc1 (stereo not shown) [Sulindac, (Z)-5-fluoro-2-methyl-1-((4-(methylsulfinyl)phenyl)methylene)-1H-indene-3-acetic acid]
Kaplan-Meier estimated mean time to first FRE ([1]; ITT population): 23.6 months | Event-free rate ([1]; ITT population, cumulative): 63.1% | FREs occurred, percent of patients ([1]; ITT population, cumulative): 37.9% | Surgical FAP-related events, Colon: Event-free proportion ([1]; disease site colon): 69.2% | Surgical FAP-related events, Colon: Colectomy [1, 6]: 2 | Surgical FAP-related events, Colon: Disease progression [1, 6]: 4 | Surgical FAP-related events, Duodenum: Event-free proportion ([1]; disease site duodenum): 70.2% | Surgical FAP-related events, Duodenum: Disease progression [1, 7]: 10 | Surgical FAP-related events, Duodenum: Excisional intervention [1, 7]: 6 | Surgical FAP-related events, Duodenum: Spigelman stage progression [1, 7]: 7 | Surgical FAP-related events, Rectum and Pouch: Event-free proportion ([1]; disease site rectum and pouch): 95% | Surgical FAP-related events, Rectum and Pouch: Disease progression [1, 8]: 2 | Surgical FAP-related events, Rectum and Pouch: Proctectomy/pouch resection [1, 8]: 1 | FRE type: Duodenal excision ([1]; duodenal polyposis stratum): 6 | FRE type: Duodenal excision and Spigelman stage progression ([1]; duodenal polyposis stratum): 2 | FRE type: Duodenal excision and ≥ 10 mm polyp removed in rectum/pouch ([1]; duodenal polyposis stratum): 1 | FRE type: Proctocolectomy and ≥ 10 mm polyp removed in rectum/pouch ([1]; duodenal polyposis stratum): 1 | FRE type: Spigelman stage progression ([1]; duodenal polyposis stratum): 3 | FRE type: ≥10 mm polyp removed in rectum/pouch ([1]; duodenal polyposis stratum): 1 | Patients with FRE, % ([1]; duodenal polyposis stratum): (41.2) % | Total FRE ([1]; duodenal polyposis stratum): 14 | Mean time to first FRE ([1]; duodenal polyposis stratum): 21.1 months | Risk reduction versus combination ([1]; duodenal polyposis stratum, combination relative to the arm named): 29% | Hazard ratio ([1]; duodenal polyposis stratum): 0.716 | Patients with FRE, % ([1]; duodenal polyposis stratum, listed as sulindac): 41.2% | Progression of lower gastrointestinal polyposis: surgeries ([1]; human, in vivo): 3 | Patients with duodenal polyposis progression who underwent duodenal excisional procedures ([1]; number of patients): 6 | FRE type: Pouch resection [1, 9]: 1 | FRE type: ≥10 mm polyp removed in rectum/pouch [1, 9]: 1 | Patients with FRE, % [1, 9]: (18.2) % | Total FRE [1, 9]: 2 | Mean time to first FRE [1, 9]: 27.5 months | Risk reduction versus combination ([1]; post-colectomy, rectal/ileal pouch stratum, combination relative to the arm named): 16% | Hazard ratio [1, 9]: 0.841 | Patients with FRE, % ([1]; post-colectomy, rectal/ileal pouch stratum, listed as sulindac): 18.2% | FRE type: Colectomy ([1]; pre-colectomy stratum): 4 | FRE type: Duodenal excision and Spigelman stage progression ([1]; pre-colectomy stratum): 1 | FRE type: Spigelman stage progression ([1]; pre-colectomy stratum): 1 | Patients with FRE, % ([1]; pre-colectomy stratum): (46.2) % | Total FRE ([1]; pre-colectomy stratum): 6 | Mean time to first FRE ([1]; pre-colectomy stratum): 25.2 months | Hazard ratio ([1]; pre-colectomy stratum): 0.299 | Patients with FRE, % ([1]; pre-colectomy stratum, listed as sulindac): 46.2% | Risk reduction versus combination ([1]; pre-colectomy stratum, risk reduction for FRE of the combination relative to the arm named): 70% | Event Rate of FAP-related Surgery Events in Lower GI ([1]; subjects with lower GI anatomy): 6/58 (10%) | Lower GI surgery events: Need colectomy ([1]; subjects with lower GI anatomy): 4 | Lower GI surgery events: Need pouch resection ([1]; subjects with lower GI anatomy): 1 | Lower GI surgery events: Need proctectomy ([1]; subjects with lower GI anatomy): 1 | Lower GI surgery events: Total Surgical Events ([1]; subjects with lower GI anatomy): 6 | Progression of lower gastrointestinal polyposis: polypectomies ([1]; ≥10 mm in size and/or high grade dysplasia): 4 | Mild gastrointestinal effects, percent of patients [2]: ~20% | Skin rash and pruritus, percent of patients [2]: 5% | Time to peak plasma levels ([3]; oral, fasting patients): about 2 hours | Drug absorbed after oral administration ([3]; oral): about 90% | Discontinuations due to AEs, number of patients [4]: 6 patients | Discontinuations due to AEs, percent of patients [4]: 10.3% | TRAE reported by % of patients [4]: 73.7% | Treatment-related hearing adverse events: Hearing loss N [4]: 2 | Treatment-related hearing adverse events: Tinnitus N [4]: 5 | Treatment-related serious adverse events [4]: Severe Nausea; also recorded: Deep Vein Thrombosis; also recorded: Worsening of Depression; also recorded: Spontaneous Abortion | Treatment-related serious adverse events ([4]; listed as sulindac): severe nausea, deep vein thrombosis, worsening of depression, and spontaneous abortion | Death ([4]; safety population): 0 n (%) | Number of patients discontinuing due to a TRAE ([4]; safety population): 5 (8.8) n (%) | Number of patients reporting TEAEs ([4]; safety population): 50 (87.7) n (%) | Number of patients reporting TEAEs ≥ Grade 3 ([4]; safety population): 12 (21.1) n (%) | Number of patients reporting TRAE: Abdominal distension ([4]; safety population): 3 (5.3) n (%) | Number of patients reporting TRAE: Abdominal pain ([4]; safety population): 4 (7.0) n (%) | Number of patients reporting TRAE: Alopecia ([4]; safety population): 3 (5.3) n (%) | Number of patients reporting TRAE: Decreased appetite ([4]; safety population): 4 (7.0) n (%) | Number of patients reporting TRAE: Depression ([4]; safety population): 3 (5.3) n (%) | Number of patients reporting TRAE: Diarrhea ([4]; safety population): 3 (5.3) n (%) | Number of patients reporting TRAE: Dizziness ([4]; safety population): 2 (3.5) n (%) | Number of patients reporting TRAE: Dyspepsia ([4]; safety population): 4 (7.0) n (%) | Number of patients reporting TRAE: Fatigue ([4]; safety population): 4 (7.0) n (%) | Number of patients reporting TRAE: Flatulence ([4]; safety population): 3 (5.3) n (%) | Number of patients reporting TRAE: Frequent bowel movements ([4]; safety population): 1 (1.8) n (%) | Number of patients reporting TRAE: Gastritis erosive ([4]; safety population): 0 n (%) | Number of patients reporting TRAE: Headache ([4]; safety population): 7 (12.3) n (%) | Number of patients reporting TRAE: Hematochezia ([4]; safety population): 2 (3.5) n (%) | Number of patients reporting TRAE: Nausea ([4]; safety population): 9 (15.8) n (%) | Number of patients reporting TRAE: Pruritus ([4]; safety population): 4 (7.0) n (%) | Number of patients reporting TRAE: Rash ([4]; safety population): 0 n (%) | Number of patients reporting TRAE: Rectal hemorrhage ([4]; safety population): 4 (7.0) n (%) | Number of patients reporting TRAE: Thrombocytopenia ([4]; safety population): 3 (5.3) n (%) | Number of patients reporting TRAE: Tinnitus ([4]; safety population): 5 (8.8) n (%) | Number of patients reporting TRAE: Upper abdominal pain ([4]; safety population): 1 (1.8) n (%) | Number of patients reporting TRAE: Vomiting ([4]; safety population): 4 (7.0) n (%) | Number of patients reporting TRAEs ([4]; safety population): 42 (73.7) n (%) | Number of patients reporting TRSAEs ([4]; safety population): 4 (7.0) n (%)

CSc1ccc(/C=C2/C(C)=C(CC(=O)O)c3cc(F)ccc32)cc1 [sulfide metabolite]
Mean half-life ([3]; in vivo): 16.4 h

Cc1ccc(-c2cc(C(F)(F)F)nn2-c2ccc(S(N)(=O)=O)cc2)cc1 [celecoxib, 4-[5-(4-Methylphenyl)-3-(trifluoromethyl)pyrazol-1-yl]benzenesulfonamide]
Increase in rates of heart and blood vessel disease [5]: 30% | Risk of gastrointestinal side effects [5]: greater than 80% | Reduction of measures of global tumor burden from baseline (patients with FAP): 30% | Reduction of the number of colonic adenomas (patients with FAP): 1%
